Measurements from patent publication US20250250257A1, “NOVEL CRYSTALLINE FORMS” (Assembly Biosciences, Inc., priority 2021, published 2025).
Converted amounts (≈) assume the structure as drawn. “Also recorded” adds a separate entry of the source.

What was measured:
Assay type in all cases: physicochemical
[1] = Approximate solubility of Compound I, Type 1 at RT in twenty solvents (stepwise solvent addition); conditions: for solubility: thermodynamic from solid, read-out: Approximate Solubility (mg/mL) at RT
Experimental: The solubility of Compound I, Type 1 (6036531-01-A) was estimated at RT in twenty different solvents. Approximately 2 mg solids were added into a 3-mL glass vial. Solvents in Table 39 were then added stepwise (50 μL per step) into the vials until the solids were dissolved or a total volume of 2 mL was reached.

[2] = DVS (water sorption, hygroscopicity, form change post-DVS); conditions: for form change post-DVS (XRPD): after DVS (desorption and resorption); for hygroscopicity (from DVS): based on water sorption at 80% RH
[3] = Approximate solubility test of Compound I at room temperature / 50° C. in different solvents; conditions: thermodynamic from solid
Experimental: The specific steps are as follows: Charge about 5 mg of Compound I into a clean glass vial, […] visible particles (add up to 1.5 mL of solvent), record the amount of solvent at last for the calculation of solubility.

[4] = Competitive slurry studies, solid form checked by XRPD (thermodynamic stability of forms)
Experimental: Competitive slurry studies with Type 1 and the material produced from manufacture (Type 1 and 8 mixture) were performed at 25 and 50° C. in THF, EtOH and EtOAc. The solid form was checked by XRPD on day 3 and day 7.

## Cn1cnc([C@@H]2C[C@@H]3C[C@@](O)(c4cc(OCC(C)(C)O)nn4C)C[C@@H]3C2)c1C(=O)Nc1ccc(F)c(Cl)c1 [Type 1, N-(3-chloro-4-fluorophenyl)-4-((2s,3aR,5r,6aS)-5-hydroxy-5-(3-(2-hydroxy-2-methylpropoxy)-1-methyl-1H-pyrazol-5-yl)octahydropentalen-2-yl)-1-methyl-1H-imidazole-5-carboxamide]
[1]; 1-Butanol
  Characterization (of approximate solubility): Moderate
[1]; 2-MeTHF
  Characterization (of approximate solubility): Moderate
[1]; Acetone
  Characterization (of approximate solubility): Moderate
[1]; Acetonitrile
  Characterization (of approximate solubility): Poor
[1]; CPME
  Characterization (of approximate solubility): Poor
[1]; DCM
  Characterization (of approximate solubility): Poor
[1]; DMF
  Characterization (of approximate solubility): High
[1]; DMSO
  Characterization (of approximate solubility): High
[1]; EtOH
  Characterization (of approximate solubility): High
[1]; H2O
  Characterization (of approximate solubility): Poor
[1]; IPA
  Characterization (of approximate solubility): Moderate
[1]; IPAc
  Characterization (of approximate solubility): Poor
[1]; MEK
  Characterization (of approximate solubility): Moderate
[1]; MIBK
  Characterization (of approximate solubility): Poor
[1]; MTBE
  Characterization (of approximate solubility): Poor
[1]; MeOH
  Characterization (of approximate solubility): High
[1]; THF
  Characterization (of approximate solubility): High
[1]; Toluene
  Characterization (of approximate solubility): Poor
[1]; n-Heptane
  Characterization (of approximate solubility): Poor
[1]; n-Propanol
  Characterization (of approximate solubility): Moderate
[1]; organic solvent or mixture, 1-Butanol
  solubility: 2.4 to 8 mg/mL (≈ 4.4 to 14.7 mM)
[1]; organic solvent or mixture, 2-MeTHF
  solubility: 2.2 to 7.3 mg/mL (≈ 4.03 to 13.4 mM)
[1]; organic solvent or mixture, Acetone
  solubility: 2.3 to 7.7 mg/mL (≈ 4.21 to 14.1 mM)
[1]; organic solvent or mixture, Acetonitrile
  solubility: < 2 mg/mL
[1]; organic solvent or mixture, CPME
  solubility: < 2.2 mg/mL
[1]; organic solvent or mixture, DCM
  solubility: < 2.4 mg/mL
[1]; organic solvent or mixture, DMF
  solubility: > 48 mg/mL
[1]; organic solvent or mixture, DMSO
  solubility: > 48 mg/mL
[1]; organic solvent or mixture, EtOH
  solubility: 20 to 40 mg/mL (≈ 36.6 to 73.3 mM)
[1]; organic solvent or mixture, IPA
  solubility: 2.2 to 7.3 mg/mL (≈ 4.03 to 13.4 mM)
[1]; organic solvent or mixture, IPAc
  solubility: < 2.1 mg/mL
[1]; organic solvent or mixture, MEK
  solubility: 2.2 to 7.3 mg/mL (≈ 4.03 to 13.4 mM)
[1]; organic solvent or mixture, MIBK
  solubility: < 2.2 mg/mL
[1]; organic solvent or mixture, MTBE
  solubility: < 2 mg/mL
[1]; organic solvent or mixture, MeOH
  solubility: > 42 mg/mL
[1]; organic solvent or mixture, THF
  solubility: 21 to 42 mg/mL (≈ 38.5 to 76.9 mM)
[1]; organic solvent or mixture, Toluene
  solubility: < 2.5 mg/mL
[1]; organic solvent or mixture, n-Heptane
  solubility: < 2.3 mg/mL
[1]; organic solvent or mixture, n-Propanol
  solubility: 2.2 to 7.3 mg/mL (≈ 4.03 to 13.4 mM)
[1]; water, H2O
  solubility: < 2.5 mg/mL
[2]; 80% RH
  water content at 80% RH by DVS: 0.67%
[2]
  form change post-DVS (XRPD): no form change
  hygroscopicity (from DVS): slightly hygroscopic

## Cn1cnc(C2CC3CC(O)(c4cc(OCC(C)(C)O)nn4C)CC3C2)c1C(=O)Nc1ccc(F)c(Cl)c1 (stereo not shown) [Compound I, N-(3-Chloro-4-fluorophenyl)-4-(5-hydroxy-5-(3-(2-hydroxy-2-methylpropoxy)-1-methyl-1H-pyrazol-5-yl)octahydropentalen-2-yl)-1-methyl-1H-imidazole-5-carboxamide]
[3]; organic solvent or mixture, ACN, 20-25° C., read-out: Solubility (mg/mL) 20-25° C.
  solubility: < 3.3 mg/mL
[3]; organic solvent or mixture, ACN, 50° C., read-out: Solubility (mg/mL) 50° C.
  solubility: < 3.3 mg/mL
[3]; organic solvent or mixture, Acetone, 20-25° C., read-out: Solubility (mg/mL) 20-25° C.
  solubility: < 3.3 mg/mL
[3]; organic solvent or mixture, Acetone, 50° C., read-out: Solubility (mg/mL) 50° C.
  solubility: 3.8 to 4 mg/mL (≈ 6.96 to 7.33 mM)
[3]; organic solvent or mixture, Acetone/H2O = 95/5(V/V), 20-25° C., read-out: Solubility (mg/mL) 20-25° C.
  solubility: 5 to 5.1 mg/mL (≈ 9.16 to 9.34 mM)
[3]; organic solvent or mixture, Acetone/H2O = 95/5(V/V), 50° C., read-out: Solubility (mg/mL) 50° C.
  solubility: 6.5 to 6.7 mg/mL (≈ 11.9 to 12.3 mM)
[3]; organic solvent or mixture, DCM, 20-25° C., read-out: Solubility (mg/mL) 20-25° C.
  solubility: < 3.3 mg/mL
[3]; organic solvent or mixture, DCM, 50° C., read-out: Solubility (mg/mL) 50° C.
  solubility: < 3.3 mg/mL
[3]; organic solvent or mixture, DMSO, 20-25° C., read-out: Solubility (mg/mL) 20-25° C.
  solubility: 167 to 200 mg/mL (≈ 306 to 366 mM)
[3]; organic solvent or mixture, DMSO, 50° C., read-out: Solubility (mg/mL) 50° C.
  solubility: 250 to 333 mg/mL (≈ 458 to 610 mM)
[3]; organic solvent or mixture, EA, 20-25° C., read-out: Solubility (mg/mL) 20-25° C.
  solubility: < 3.3 mg/mL
[3]; organic solvent or mixture, EA, 50° C., read-out: Solubility (mg/mL) 50° C.
  solubility: < 3.3 mg/mL
[3]; organic solvent or mixture, EtOH, 20-25° C., read-out: Solubility (mg/mL) 20-25° C.
  solubility: 8 to 8.3 mg/mL (≈ 14.7 to 15.2 mM)
[3]; organic solvent or mixture, EtOH, 50° C., read-out: Solubility (mg/mL) 50° C.
  solubility: 20 to 20.4 mg/mL (≈ 36.6 to 37.4 mM)
[3]; organic solvent or mixture, EtOH/H2O = 95/5(V/V), 20-25° C., read-out: Solubility (mg/mL) 20-25° C.
  solubility: 22.2 to 23.2 mg/mL (≈ 40.7 to 42.5 mM)
[3]; organic solvent or mixture, EtOH/H2O = 95/5(V/V), 50° C., read-out: Solubility (mg/mL) 50° C.
  solubility: 45.4 to 47.6 mg/mL (≈ 83.1 to 87.2 mM)
[3]; organic solvent or mixture, Heptane, 20-25° C., read-out: Solubility (mg/mL) 20-25° C.
  solubility: < 3.3 mg/mL
[3]; organic solvent or mixture, Heptane, 50° C., read-out: Solubility (mg/mL) 50° C.
  solubility: < 3.3 mg/mL
[3]; organic solvent or mixture, IPA, 20-25° C., read-out: Solubility (mg/mL) 20-25° C.
  solubility: < 3.3 mg/mL
[3]; organic solvent or mixture, IPA, 50° C., read-out: Solubility (mg/mL) 50° C.
  solubility: 5 to 5.1 mg/mL (≈ 9.16 to 9.34 mM)
[3]; organic solvent or mixture, IPA/H2O = 95/5(V/V), 20-25° C., read-out: Solubility (mg/mL) 20-25° C.
  solubility: < 3.3 mg/mL
[3]; organic solvent or mixture, IPA/H2O = 95/5(V/V), 50° C., read-out: Solubility (mg/mL) 50° C.
  solubility: 8 to 8.1 mg/mL (≈ 14.7 to 14.8 mM)
[3]; organic solvent or mixture, IPAc, 20-25° C., read-out: Solubility (mg/mL) 20-25° C.
  solubility: < 3.3 mg/mL
[3]; organic solvent or mixture, IPAc, 50° C., read-out: Solubility (mg/mL) 50° C.
  solubility: < 3.3 mg/mL
[3]; organic solvent or mixture, MTBE, 20-25° C., read-out: Solubility (mg/mL) 20-25° C.
  solubility: < 3.3 mg/mL
[3]; organic solvent or mixture, MTBE, 50° C., read-out: Solubility (mg/mL) 50° C.
  solubility: < 3.3 mg/mL
[3]; organic solvent or mixture, MeOH, 20-25° C., read-out: Solubility (mg/mL) 20-25° C.
  solubility: 32.2 to 33.3 mg/mL (≈ 59 to 61 mM)
[3]; organic solvent or mixture, MeOH, 50° C., read-out: Solubility (mg/mL) 50° C.
  solubility: 74.1 to 76.9 mg/mL (≈ 136 to 141 mM)
[3]; organic solvent or mixture, THF, 20-25° C., read-out: Solubility (mg/mL) 20-25° C.
  solubility: 12.5 to 12.6 mg/mL (≈ 22.9 to 23.1 mM)
[3]; organic solvent or mixture, THF, 50° C., read-out: Solubility (mg/mL) 50° C.
  solubility: 18.1 to 18.5 mg/mL (≈ 33.1 to 33.9 mM)
[3]; organic solvent or mixture, Toluene, 20-25° C., read-out: Solubility (mg/mL) 20-25° C.
  solubility: < 3.3 mg/mL
[3]; organic solvent or mixture, Toluene, 50° C., read-out: Solubility (mg/mL) 50° C.
  solubility: < 3.3 mg/mL
[3]; water, H2O, 20-25° C., read-out: Solubility (mg/mL) 20-25° C.
  solubility: < 3.3 mg/mL
[3]; water, H2O, 50° C., read-out: Solubility (mg/mL) 50° C.
  solubility: < 3.3 mg/mL

## Cn1cnc([C@@H]2C[C@@H]3C[C@@](O)(c4cc(OCC(C)(C)O)nn4C)C[C@@H]3C2)c1C(=O)Nc1ccc(F)c(Cl)c1 [Type 8, N-(3-chloro-4-fluorophenyl)-4-((2s,3aR,5r,6aS)-5-hydroxy-5-(3-(2-hydroxy-2-methylpropoxy)-1-methyl-1H-pyrazol-5-yl)octahydropentalen-2-yl)-1-methyl-1H-imidazole-5-carboxamide]
[2]; 80% RH
  water update at 80% RH (DVS): 0.1%
[2]
  form change post-DVS (XRPD): No change in crystalline form
  hygroscopicity (from DVS): non-hygroscopic
[4]
  thermodynamic stability among all forms discovered: the most thermodynamically stable form discovered to date
[4]; at 25 and 50° C., versus Type 1
  relative thermodynamic stability of the form: the more thermodynamically stable form

## Cn1cnc([C@@H]2C[C@@H]3C[C@@](O)(c4cc(OCC(C)(C)O)nn4C)C[C@@H]3C2)c1C(=O)Nc1ccc(F)c(Cl)c1 [Type 2, N-(3-chloro-4-fluorophenyl)-4-((2s,3aR,5r,6aS)-5-hydroxy-5-(3-(2-hydroxy-2-methylpropoxy)-1-methyl-1H-pyrazol-5-yl)octahydropentalen-2-yl)-1-methyl-1H-imidazole-5-carboxamide]
[2]
  RH range in which the form is stable (DVS): 30-95 % RH
  form change post-DVS (XRPD): Form change was observed post-DVS to a lower order hydrate; also recorded: converted to Type 3
[2]; 80% RH
  water content at 80% RH by DVS: 9.2%
